Assay results taken from patent US11045457B2, “Piperidinyl-3-(aryloxy)propanamides and propanoates” (priority 2018, dated 2021).

What was measured:
SSTR4 [1] = target: T1, SSTR4 (Homo sapiens (Human), UniProt P31391); assay: SSTR4 I-125 somatostatin competition binding assay (membranes from CHO-K1 cells overexpressing SSTR4); conditions: competition with I-125 labeled somatostatin; for IC50: read-out: SSTR4 Binding pIC50 (converted)
Experimental: Membranes from CHO-K1 cells overexpressing SSTR4 are purchased from Perkin Elmer (catalog number ES-524-M400UA). Test compounds are suspended in DMSO and then diluted in assay buffer (25 mM HEPES pH 7.4, 10 mM MgCl2, 1 mM CaCl2), 0.5% BSA) plus 0.2 nM I-125 labeled somatostatin (Perkin Elmer catalog number NEX389). […] Then 1 μg of SSTR4 membranes in 50 μL assay buffer are added per well. The Plate is incubated for 60 minutes at room temperature. FilterMat A filters (Perkin Elmer catalog number 1450-421) are pre-soaked in 0.5% PEI (Sigma catalog number P3143). The contents of the assay plate are transferred to filters with a TomTech harvester and washed 5 times with 20 mM HEPES, 100 mM NaCl. The filters are dried in a microwave oven then transferred to sample bag containing a scintillator sheet (Perkin Elmer catalog number 1450-441). The scintillator sheets are melted to filters using a heat block. The filters are then read in a MicroBeta scintillation counter. Binding Ki curves are generated using Activity Base for Screening Data Management and the results are reported as pIC50.

SSTR1 = SSTR1 (Homo sapiens (Human), UniProt P30872); assay: SSTR1 I-125 somatostatin competition binding assay for selectivity versus SSTR4 (membranes from CHO-K1 cells overexpressing SSTR1); conditions: for SSTR1 Binding pIC50: competition with I-125 labeled somatostatin, CHO-K1 SSTR1 membranes;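 for all read-outs here: Filter-based radioligand binding, bound label counted by scintillation after 60 min incubation at room temperature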
SSTR4 [2] = target: T1, SSTR4; assay: Inhibition of forskolin stimulated cAMP in CHO-K1 cells overexpressing SSTR4; format: cell-based; conditions: for EC50: read-out: SSTR4 Activity pEC50 (converted)
Method in brief: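 Read-out is a HTRF LANCE Ultra cAMP competition using Eu-labelled streptavidin and biotin-cAMP, incubated 60 min at room temperature. It followed a 30 min room-temperature exposure of Kreb's Ringer-washed cells to compound plus forskolin. Potency is expressed as pEC50.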

SSTR1, sequence (P30872 whole entry): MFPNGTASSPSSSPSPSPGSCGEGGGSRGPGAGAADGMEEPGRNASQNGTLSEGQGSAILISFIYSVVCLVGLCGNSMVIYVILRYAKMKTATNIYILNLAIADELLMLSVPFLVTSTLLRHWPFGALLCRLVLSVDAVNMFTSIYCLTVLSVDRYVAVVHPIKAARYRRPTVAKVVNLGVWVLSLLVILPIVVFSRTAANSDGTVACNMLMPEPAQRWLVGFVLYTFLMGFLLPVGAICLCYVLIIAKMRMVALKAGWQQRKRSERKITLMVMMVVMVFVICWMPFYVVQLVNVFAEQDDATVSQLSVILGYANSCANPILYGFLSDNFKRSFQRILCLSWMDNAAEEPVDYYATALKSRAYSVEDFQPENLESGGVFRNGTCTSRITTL
T1 sequence (P31391 whole entry): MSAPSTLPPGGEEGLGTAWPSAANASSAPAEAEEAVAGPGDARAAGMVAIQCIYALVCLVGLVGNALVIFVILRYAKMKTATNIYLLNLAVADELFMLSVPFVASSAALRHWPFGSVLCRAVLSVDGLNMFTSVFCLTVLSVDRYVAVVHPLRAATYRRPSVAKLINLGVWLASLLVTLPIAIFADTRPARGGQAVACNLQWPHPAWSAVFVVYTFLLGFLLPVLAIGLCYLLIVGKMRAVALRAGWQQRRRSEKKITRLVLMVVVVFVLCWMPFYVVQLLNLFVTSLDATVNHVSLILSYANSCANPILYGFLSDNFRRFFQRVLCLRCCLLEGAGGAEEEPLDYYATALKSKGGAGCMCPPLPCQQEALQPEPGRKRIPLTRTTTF

CN1C[C@@H](NC(=O)C(C)(C)COc2ncccc2C2CC2)[C@H](c2ccc(C(F)(F)F)nc2)C1 (racemic) [Example 58, trans-3-((3-cyclopropylpyridin-2-yl)oxy)-2,2-dimethyl-N-(1-methyl-4-(6-(trifluoromethyl)pyridin-3-yl)pyrrolidin-3-yl)propanamide]
IC50 (SSTR4 [1]): 200 nM
IC50 (SSTR1): 126 nM
EC50 (SSTR4 [2]): 20 nM

CN1CCC(NC(=O)C(C)(C)COc2ncccc2OC(F)(F)F)CC1 [Example 92, 2,2-dimethyl-N-(1-methylpiperidin-4-yl)-3-((3-(trifluoromethoxy)pyridin-2-yl)oxy)propanamide]
SSTR4 Binding pIC50 (SSTR4 [1]): 6.8
SSTR1 Binding pIC50 (SSTR1): 4.8
SSTR4 Activity pEC50 (SSTR4 [2]): 7.7

CN(C(=O)C(C)(C)COc1ncccc1C(F)(F)F)[C@@H]1CCNC[C@H]1c1ccccc1 (racemic) [Example 162, trans-N,2,2-trimethyl-N-(3-phenylpiperidin-4-yl)-3-((3-(trifluoromethyl)pyridin-2-yl)oxy)propanamide]
IC50 (SSTR4 [1]): 1580 nM
IC50 (SSTR1): 50100 nM
EC50 (SSTR4 [2]): 126 nM

Cc1ccccc1[C@@H]1CN(C)CC[C@H]1NC(=O)C(C)(C)COc1ncccc1C(F)(F)F (relative stereo) [Example 161, 2,2-dimethyl-N-(trans-1-methyl-3-(o-tolyl)piperidin-4-yl)-3-((3-(trifluoromethyl)pyridin-2-yl)oxy)propanamide]
SSTR4 Binding pIC50 (SSTR4 [1]): 7.7
SSTR1 Binding pIC50 (SSTR1): 6.5
SSTR4 Activity pEC50 (SSTR4 [2]): 9.1

CN1CCC(NC(=O)C(C)(C)COc2ncccc2C2CC2)CC1 [Example 47, 3-((3-cyclopropylpyridin-2-yl)oxy)-2,2-dimethyl-N-(1-methylpiperidin-4-yl)propanamide]
SSTR4 Binding pIC50 (SSTR4 [1]): 7.1
SSTR1 Binding pIC50 (SSTR1): 4.8
SSTR4 Activity pEC50 (SSTR4 [2]): 8.1

CN1CCC(NC(=O)C(C)(C)COc2ccccc2Br)CC1 [Example 67, 3-(2-bromophenoxy)-2,2-dimethyl-N-(1-methylpiperidin-4-yl)propanamide]
SSTR4 Binding pIC50 (SSTR4 [1]): 7.4
SSTR1 Binding pIC50 (SSTR1): 5.1
SSTR4 Activity pEC50 (SSTR4 [2]): 8.1

C[C@H]1CNCC[C@@H]1NC(=O)C(F)(F)COc1ccccc1Cl [Example 216, 3-(2-chlorophenoxy)-2,2-difluoro-N-((3S,4S)-3-methylpiperidin-4-yl)propanamide]
SSTR4 Binding pIC50 (SSTR4 [1]): 7.7
SSTR1 Binding pIC50 (SSTR1): 4.8
SSTR4 Activity pEC50 (SSTR4 [2]): 9.4

C[C@@H]1C[C@H](NC(=O)C(F)(F)COc2ncccc2C2CC2)CCN1C [Example 194, 3-((3-cyclopropylpyridin-2-yl)oxy)-N-((2R,4R)-1,2-dimethylpiperidin-4-yl)-2,2-difluoropropanamide]
SSTR4 Binding pIC50 (SSTR4 [1]): 7.7
SSTR1 Binding pIC50 (SSTR1): 4.4
SSTR4 Activity pEC50 (SSTR4 [2]): 8.4

C[C@@H]1CN(C)C[C@H]1NC(=O)C(C)(C)COc1ncccc1OC(F)(F)F (relative stereo) [Example 180, N-(trans-1,4-dimethylpyrrolidin-3-yl)-2,2-dimethyl-3-((3-(trifluoromethoxy)pyridin-2-yl)oxy)propanamide]
SSTR4 Binding pIC50 (SSTR4 [1]): 6.5
SSTR1 Binding pIC50 (SSTR1): 5.4
SSTR4 Activity pEC50 (SSTR4 [2]): 7.6

CN1C[C@H](NC(=O)C(C)(C)COc2ncccc2OC(F)(F)F)C2(CC2)C1 [Example 150, (R)-2,2-dimethyl-N-(5-methyl-5-azaspiro[2.4]heptan-7-yl)-3-((3-(trifluoromethoxy)pyridin-2-yl)oxy)propanamide]
SSTR4 Binding pIC50 (SSTR4 [1]): 7.3
SSTR1 Binding pIC50 (SSTR1): 5.6
SSTR4 Activity pEC50 (SSTR4 [2]): 8.2
